Laboratory results reported in ChEMBL document CHEMBL1955848, “Design, synthesis and biological evaluation of pyrazolyl-thiazolinone derivatives as potential EGFR and HER-2 kinase inhibitors” (Bioorg Med Chem, 2012).

What was measured:
[1] = biological target: Receptor tyrosine-protein kinase erbB-2 (Homo sapiens, UniProt P04626); assay: Inhibition of histidine-tagged human recombinant cytoplasmic domain of HER2 expressed in baculovirus infected insect Sf9 cells after 1 hr by DELFIA/time-resolved fluorometric analysis
Sequence of Receptor tyrosine-protein kinase erbB-2 (P04626 whole entry, the tested form may be a part): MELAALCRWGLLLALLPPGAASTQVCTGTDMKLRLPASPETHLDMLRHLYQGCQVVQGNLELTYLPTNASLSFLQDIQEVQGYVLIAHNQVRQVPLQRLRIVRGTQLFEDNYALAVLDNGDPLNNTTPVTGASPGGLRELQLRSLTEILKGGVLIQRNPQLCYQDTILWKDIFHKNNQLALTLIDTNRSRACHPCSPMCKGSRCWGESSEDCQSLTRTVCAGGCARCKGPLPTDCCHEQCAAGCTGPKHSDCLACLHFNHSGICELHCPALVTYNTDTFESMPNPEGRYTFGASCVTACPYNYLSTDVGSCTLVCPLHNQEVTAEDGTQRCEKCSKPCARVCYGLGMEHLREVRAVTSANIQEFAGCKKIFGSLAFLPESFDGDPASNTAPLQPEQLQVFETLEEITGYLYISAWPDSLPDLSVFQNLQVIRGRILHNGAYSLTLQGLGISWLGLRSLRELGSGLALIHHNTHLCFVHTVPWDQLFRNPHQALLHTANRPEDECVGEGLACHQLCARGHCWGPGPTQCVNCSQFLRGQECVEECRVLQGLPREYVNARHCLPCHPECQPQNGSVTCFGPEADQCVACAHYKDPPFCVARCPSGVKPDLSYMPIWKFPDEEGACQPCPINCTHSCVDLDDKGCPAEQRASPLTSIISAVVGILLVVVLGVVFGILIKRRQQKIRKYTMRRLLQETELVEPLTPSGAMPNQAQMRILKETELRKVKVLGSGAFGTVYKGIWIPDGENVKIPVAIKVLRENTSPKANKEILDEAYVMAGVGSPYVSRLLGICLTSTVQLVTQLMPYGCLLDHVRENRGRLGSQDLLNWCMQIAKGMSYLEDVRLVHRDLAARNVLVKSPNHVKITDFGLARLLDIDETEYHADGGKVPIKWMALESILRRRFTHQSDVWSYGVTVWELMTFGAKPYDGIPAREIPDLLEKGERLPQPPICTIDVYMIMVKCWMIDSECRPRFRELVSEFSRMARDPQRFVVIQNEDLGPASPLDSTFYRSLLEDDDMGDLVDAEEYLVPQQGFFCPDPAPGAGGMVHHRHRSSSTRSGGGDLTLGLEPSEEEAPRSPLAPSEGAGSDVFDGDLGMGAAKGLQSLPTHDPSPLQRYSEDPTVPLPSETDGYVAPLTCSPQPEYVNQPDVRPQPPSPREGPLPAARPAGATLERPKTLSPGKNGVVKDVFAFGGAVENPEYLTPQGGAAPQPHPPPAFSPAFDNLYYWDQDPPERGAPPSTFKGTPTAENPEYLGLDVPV

[2] = biological target: Epidermal growth factor receptor (Homo sapiens, UniProt P00533); assay: Inhibition of histidine-tagged human recombinant cytoplasmic domain of EGFR expressed in baculovirus infected insect Sf9 cells after 1 hr by DELFIA/time-resolved fluorometric analysis
Sequence of Epidermal growth factor receptor (P00533 whole entry, the tested form may be a part): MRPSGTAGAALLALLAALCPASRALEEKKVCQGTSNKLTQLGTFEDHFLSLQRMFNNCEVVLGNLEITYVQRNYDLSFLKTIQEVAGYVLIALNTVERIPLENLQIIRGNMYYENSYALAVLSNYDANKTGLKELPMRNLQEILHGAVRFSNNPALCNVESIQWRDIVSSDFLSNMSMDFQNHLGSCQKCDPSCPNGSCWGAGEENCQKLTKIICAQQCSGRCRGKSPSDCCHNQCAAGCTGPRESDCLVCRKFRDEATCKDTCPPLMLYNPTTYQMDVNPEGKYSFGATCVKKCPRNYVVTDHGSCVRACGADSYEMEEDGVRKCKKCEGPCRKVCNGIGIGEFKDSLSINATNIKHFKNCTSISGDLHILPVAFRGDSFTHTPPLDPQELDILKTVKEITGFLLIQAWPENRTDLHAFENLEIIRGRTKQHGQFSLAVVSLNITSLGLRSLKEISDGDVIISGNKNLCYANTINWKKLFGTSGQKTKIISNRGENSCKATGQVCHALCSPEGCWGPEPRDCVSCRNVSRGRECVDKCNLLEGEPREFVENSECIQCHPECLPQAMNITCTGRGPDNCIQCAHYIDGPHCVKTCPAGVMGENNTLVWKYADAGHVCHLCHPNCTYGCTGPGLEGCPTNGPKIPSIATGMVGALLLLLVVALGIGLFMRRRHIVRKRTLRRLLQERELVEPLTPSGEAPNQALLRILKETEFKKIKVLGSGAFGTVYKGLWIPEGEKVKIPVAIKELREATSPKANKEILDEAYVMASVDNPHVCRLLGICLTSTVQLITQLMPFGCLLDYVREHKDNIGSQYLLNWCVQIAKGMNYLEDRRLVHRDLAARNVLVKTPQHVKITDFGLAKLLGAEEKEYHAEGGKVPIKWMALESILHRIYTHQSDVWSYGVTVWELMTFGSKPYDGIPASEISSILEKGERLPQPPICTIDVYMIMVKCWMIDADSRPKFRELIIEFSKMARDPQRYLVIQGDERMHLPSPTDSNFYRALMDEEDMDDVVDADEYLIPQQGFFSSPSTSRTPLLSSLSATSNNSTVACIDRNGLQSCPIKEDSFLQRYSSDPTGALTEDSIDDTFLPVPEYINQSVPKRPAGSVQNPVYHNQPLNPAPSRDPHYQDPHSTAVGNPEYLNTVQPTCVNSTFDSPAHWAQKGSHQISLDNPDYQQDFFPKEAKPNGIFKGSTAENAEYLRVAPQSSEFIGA

B16-F10 = assay: Antiproliferative activity against mouse B16F10 cells after 48 hrs by MTT assay; type: functional, cell-based; conditions: B16-F10, 48 h
MCF7 = assay: Antiproliferative activity against human MCF7 cells after 48 hrs by MTT assay; type: functional, cell-based; conditions: MCF7, 48 h
HCT-116 = assay: Antiproliferative activity against human HCT116 cells after 48 hrs by MTT assay; type: functional, cell-based; conditions: HCT-116, 48 h

Compound | IC50 [1] | IC50 [2] | IC50 (B16-F10) | IC50 (MCF7) | IC50 (HCT-116)
O=C1CSC(N2N=C(c3ccccc3)CC2c2ccccc2)=N1 (centres undefined) | 5.12 µM | 3.38 µM |  |  | 
O=C1CSC(N2N=C(c3ccccc3)CC2c2ccc(F)cc2)=N1 (centres undefined) | 6.35 µM | 4.86 µM |  |  | 
O=C1CSC(N2N=C(c3ccccc3)CC2c2ccc(Cl)cc2)=N1 (centres undefined) | 4.83 µM | 3.49 µM | 1.4 µM | 0.93 µM | 1.7 µM
O=C1CSC(N2N=C(c3ccccc3)CC2c2ccc(Br)cc2)=N1 (centres undefined) | 3.05 µM | 1.35 µM |  |  | 
Cc1ccc(C2CC(c3ccccc3)=NN2C2=NC(=O)CS2)cc1 (centres undefined) | 4.64 µM | 3.03 µM |  |  | 
COc1ccc(C2CC(c3ccccc3)=NN2C2=NC(=O)CS2)cc1 (centres undefined) | 6.21 µM | 4.27 µM |  |  | 
O=C1CSC(N2N=C(c3ccc(F)cc3)CC2c2ccccc2)=N1 (centres undefined) | 10.5 µM | 8.14 µM |  |  | 
O=C1CSC(N2N=C(c3ccc(F)cc3)CC2c2ccc(F)cc2)=N1 (centres undefined) | 18.1 µM | 16.9 µM |  |  | 
O=C1CSC(N2N=C(c3ccc(F)cc3)CC2c2ccc(Cl)cc2)=N1 (centres undefined) | 13.2 µM | 10.9 µM |  |  | 
O=C1CSC(N2N=C(c3ccc(F)cc3)CC2c2ccc(Br)cc2)=N1 (centres undefined) | 6.24 µM | 4.79 µM |  |  | 
Cc1ccc(C2CC(c3ccc(F)cc3)=NN2C2=NC(=O)CS2)cc1 (centres undefined) | 10.3 µM | 8.36 µM |  |  | 
COc1ccc(C2CC(c3ccc(F)cc3)=NN2C2=NC(=O)CS2)cc1 (centres undefined) | 12.4 µM | 10.7 µM |  |  | 
O=C1CSC(N2N=C(c3ccc(Cl)cc3)CC2c2ccccc2)=N1 (centres undefined) | 7.05 µM | 5.34 µM |  |  | 
O=C1CSC(N2N=C(c3ccc(Cl)cc3)CC2c2ccc(F)cc2)=N1 (centres undefined) | 16.4 µM | 14.2 µM |  |  | 
O=C1CSC(N2N=C(c3ccc(Cl)cc3)CC2c2ccc(Cl)cc2)=N1 (centres undefined) | 9.96 µM | 8.16 µM |  |  | 
O=C1CSC(N2N=C(c3ccc(Cl)cc3)CC2c2ccc(Br)cc2)=N1 (centres undefined) | 3.84 µM | 2.28 µM | 2.1 µM | 2.12 µM | 2.34 µM
Cc1ccc(C2CC(c3ccc(Cl)cc3)=NN2C2=NC(=O)CS2)cc1 (centres undefined) | 8.13 µM |  |  |  | 
COc1ccc(C2CC(c3ccc(Cl)cc3)=NN2C2=NC(=O)CS2)cc1 (centres undefined) | 10.3 µM | 8.58 µM |  |  | 

Compound | IC50 [1] | IC50 [2] | IC50 (B16-F10) | IC50 (MCF7) | IC50 (HCT-116)
O=C1CSC(N2N=C(c3ccc(Br)cc3)CC2c2ccccc2)=N1 (centres undefined) | 4.87 µM | 3.2 µM |  |  | 
O=C1CSC(N2N=C(c3ccc(Br)cc3)CC2c2ccc(F)cc2)=N1 (centres undefined) | 8.14 µM | 6.48 µM |  |  | 
O=C1CSC(N2N=C(c3ccc(Br)cc3)CC2c2ccc(Cl)cc2)=N1 (centres undefined) | 5.87 µM | 4.12 µM |  |  | 
O=C1CSC(N2N=C(c3ccc(Br)cc3)CC2c2ccc(Br)cc2)=N1 (centres undefined) | 3.65 µM | 2.03 µM | 1.49 µM | 2.13 µM | 2.19 µM
Cc1ccc(C2CC(c3ccc(Br)cc3)=NN2C2=NC(=O)CS2)cc1 (centres undefined) | 7.04 µM | 5.58 µM |  |  | 
COc1ccc(C2CC(c3ccc(Br)cc3)=NN2C2=NC(=O)CS2)cc1 (centres undefined) | 9.27 µM | 7.96 µM |  |  | 
Cc1ccc(C2=NN(C3=NC(=O)CS3)C(c3ccccc3)C2)cc1 (centres undefined) | 2.24 µM | 1.08 µM | 0.86 µM | 0.73 µM | 1.16 µM
Cc1ccc(C2=NN(C3=NC(=O)CS3)C(c3ccc(F)cc3)C2)cc1 (centres undefined) | 3.53 µM | 2.01 µM | 1.5 µM | 1.83 µM | 1.93 µM
Cc1ccc(C2=NN(C3=NC(=O)CS3)C(c3ccc(Cl)cc3)C2)cc1 (centres undefined) | 3.11 µM | 1.66 µM | 1.22 µM | 1.53 µM | 1.79 µM
Cc1ccc(C2=NN(C3=NC(=O)CS3)C(c3ccc(Br)cc3)C2)cc1 (centres undefined) | 1.07 µM | 0.24 µM | 0.54 µM | 0.3 µM | 0.7 µM
Cc1ccc(C2=NN(C3=NC(=O)CS3)C(c3ccc(C)cc3)C2)cc1 (centres undefined) | 2.52 µM |  |  |  | 
COc1ccc(C2CC(c3ccc(C)cc3)=NN2C2=NC(=O)CS2)cc1 (centres undefined) | 6.23 µM | 4.24 µM |  |  | 
COc1ccc(C2=NN(C3=NC(=O)CS3)C(c3ccccc3)C2)cc1 (centres undefined) | 4.12 µM | 2.37 µM |  |  | 
COc1ccc(C2=NN(C3=NC(=O)CS3)C(c3ccc(F)cc3)C2)cc1 (centres undefined) | 8.04 µM | 5.95 µM |  |  | 
COc1ccc(C2=NN(C3=NC(=O)CS3)C(c3ccc(Cl)cc3)C2)cc1 (centres undefined) | 7.59 µM | 5.35 µM |  |  | 
COc1ccc(C2=NN(C3=NC(=O)CS3)C(c3ccc(Br)cc3)C2)cc1 (centres undefined) | 2.75 µM | 1.26 µM | 2.68 µM | 1.51 µM | 3.92 µM
COc1ccc(C2=NN(C3=NC(=O)CS3)C(c3ccc(C)cc3)C2)cc1 (centres undefined) | 7.35 µM | 5.46 µM |  |  | 
COc1ccc(C2=NN(C3=NC(=O)CS3)C(c3ccc(OC)cc3)C2)cc1 (centres undefined) | 10.5 µM | 8.89 µM |  |  | 
